Data: patent publication US20060241149A1, “Chemical compounds” (priority 2002, published 2006)
Counter-ions that a name gives are not always drawn.

Assays:
TIE2 kinase = molecular target: T1, TIE2 kinase (Homo sapiens, UniProt Q02763); experiment: TIE2 kinase inhibition; format: biochemical
T1 construct: made in house; host or cells: baculovirus expression (insect cells)
Description: TIE-2 Enzyme Assay (TIE2-E)
The TIE-2 enzyme assay uses the LANCE method (Wallac) and GST-TIE2, baculovirus expressed recombinant constructs of the intracellular domains of human TIE2 (amino acids 762-1104, GenBank Accession #L06139) tagged by GST). The method measures the ability of the purified enzymes to catalyse the transfer of the γ-phosphate from ATP onto tyrosine residues in a biotinylated synthetic peptide, D1-15 (biotin-C6-LEARLVAYEGWVAGKKKamide). This peptide phosphorylation is detected using the following procedure: for enzyme preactivation, GST-TIE2 is incubated for 30 mins at room temperature with 2 mM ATP, 5 mM MgCl2 and 12.5 mM DTT in 22.5 MM HEPES buffer (pH7.4). Preactivated GST-TIE2 is incubated for 30mins at room temperature in 96 well plates with 1 uM D1-15 peptide, 80 uM ATP, 10 mM MgCl2, 0.1 mg/ml BSA and the test compound (diluted from a 10 mM stock in DMSO, final DMSO concentration is 2.4%) in 1 mM HEPES (pH7.4). The reaction is stopped by the addition of EDTA (final concentration 45 mM). Streptavidin linked-APC (allophycocyanin, Molecular Probe) and Europium-labeled anti-phosphorylated tyrosine antibody (Wallac) are then added at the final concentration of 17 ug/well and 2.1 ug/well, respectively. The APC signal is measured using an ARVO multilabel counter. (Wallac Berthold Japan). The percent inhibition of activity is calculated relative to blank control wells. The concentration of test compound that inhibits 50% of activity (IC50) is interpolated using nonlinear regression (Levernberg-Marquardt) and the equation, y=Vmax (1−x/(K+x))+Y2, where “K” is equal to the IC50. The IC50 values are converted to pIC50 values, i.e., -log IC50 in Molar concentration.
TIE-2 Enzyme Assay (TIE2-E2
The TIE-2 enzyme assay uses the LANCE method (Wallac) and GST-TIE2, baculovirus-expressed recombinant constructs of the intracellular domains of human TIE2 (amino acids 762-1104, GenBank Accession #L06139) tagged by GST). The method measures the ability of the purified enzymes to catalyse the transfer of the γ-phosphate from ATP onto tyrosine residues in a biotinylated synthetic peptide, D1-15 (biotin-C6-LEARLVAYEGWVAGKKKamide). This peptide phosphorylation is detected using the following procedure: for enzyme preactivation, GST-TIE2 is incubated for 2 hours at room temperature with 80 μM ATP, 10 mM MgCl2, 0.1 mg/ml BSA, 0.01% Tween 20 and 1 mM DTT in 100 mM HEPES buffer (pH7.4). […] The APC signal is measured using an Wallac Multilabel 1420 counter. […] The percent inhibition of activity is calculated relative to blank control wells. […]
Tie2 Fluorescence Polarization Kinase Activity Assay: (TIE2-FP) […]

Raf kinase = Raf kinase inhibition; format: biochemical

T1 sequence (Q02763 762-1104): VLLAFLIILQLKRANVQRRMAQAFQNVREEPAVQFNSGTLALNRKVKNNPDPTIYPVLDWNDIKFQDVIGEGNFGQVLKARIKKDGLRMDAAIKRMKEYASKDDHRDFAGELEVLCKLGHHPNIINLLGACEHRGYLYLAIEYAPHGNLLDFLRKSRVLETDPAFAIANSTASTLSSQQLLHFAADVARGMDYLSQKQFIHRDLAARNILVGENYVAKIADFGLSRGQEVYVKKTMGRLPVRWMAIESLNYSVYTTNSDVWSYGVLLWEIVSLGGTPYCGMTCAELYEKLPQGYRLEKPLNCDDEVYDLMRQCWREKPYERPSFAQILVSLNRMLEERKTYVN

Compound | IC50 (TIE2 kinase) [nM] | IC50 (Raf kinase) [nM]
CNC(=O)c1cc(Oc2ccc3c(c2)CCN3C(=O)Nc2cccc(C(F)(F)F)c2)ccn1 [Example 3, 5-(2-Methylcarbamoyl-pyridin-4-yloxy)-2,3-dihydro-indole-1-carboxylic acid(3′-trifluoromethyl-phenyl)-amide] | < 250 | 
CNC(=O)c1cc(Oc2ccc3c(c2)CCN3C(=O)Nc2ccc(F)c(C(F)(F)F)c2)ccn1 [Example 4, 5-(2-Methylcarbamoyl-pyridin-4-yloxy)-2,3-dihydro-indole-1-carboxylic acid(4′-fluoro-3′-trifluoromethyl-phenyl)-amide] | < 250 | 
CNC(=O)c1cc(Oc2ccc3c(c2)CCN3C(=O)Nc2cc(C(F)(F)F)cc(C(F)(F)F)c2)ccn1 [Example 6, 5-(2-Methylcarbamoyl-pyridin-4-yloxy)-2,3-dihydro-indole-1-carboxylic acid(bis-3′,5′-trifluoromethylphenyl)-amide] | < 250 | 
CNC(=O)c1cc(Oc2ccc3c(c2)CCN3C(=O)Nc2cc(C(C)(C)C)on2)ccn1 [Example 7, 5-(2-Methylcarbamoyl-pyridin-4-yloxy)-2,3-dihydro-indole-1-carboxylic acid(5-tert-butyl-isoxazol-3-yl)-amide trifluoroacetate] | < 250 | 
CNC(=O)c1cc(Oc2ccc3c(c2)CCN3C(=O)Nc2ccc(Cl)c(C(F)(F)F)c2)ccn1 [Example 8, 5-(2-Methylcarbamoyl-pyridin-4-yloxy)-2,3-dihydro-indole-1-carboxylic acid(4′-chloro-3′-trifluoromethyl-phenyl)-amide] |  | < 250
